In paper PMC7246765, “Development of a Radiofluorinated Adenosine A2B Receptor Antagonist as Potential Ligand for PET Imaging” (International Journal of Molecular Sciences, 2020):
“And” between values parts separate entries of the source, which are not always exact repeats. Identical values can stand only once.

Assays:
[1] = molecular target: T1, human adenosine A2B receptor (Homo sapiens, UniProt P29275); test: Competitive radioligand binding with [3H]PSB-603, membranes of CHO or HEK cells; conditions: mean ± SEM of three independent assays
T1 construct: host or cells: CHO or HEK cells
T1 sequence (P29275 1-332): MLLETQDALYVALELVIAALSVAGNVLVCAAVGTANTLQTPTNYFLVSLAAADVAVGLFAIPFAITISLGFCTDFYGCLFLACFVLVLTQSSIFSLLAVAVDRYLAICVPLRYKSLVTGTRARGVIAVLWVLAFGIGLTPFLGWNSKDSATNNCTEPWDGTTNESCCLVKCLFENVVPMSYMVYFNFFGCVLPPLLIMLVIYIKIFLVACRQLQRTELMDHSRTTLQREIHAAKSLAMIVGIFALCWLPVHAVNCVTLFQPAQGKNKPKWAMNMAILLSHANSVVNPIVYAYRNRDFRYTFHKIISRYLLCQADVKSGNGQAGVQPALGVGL
Description: (§1) The binding affinities of 2 and 9 at the four human adenosine receptor subtypes A2B, A2A, A1, and A3, presented in Table 1, were determined in competitive binding assays using appropriate radioligands and membrane preparations of Chinese hamster ovary (CHO) cells or human embryonic kidney (HEK) cells, respectively, recombinantly expressing the corresponding human receptor subtype.
(§2) Membrane preparations of recombinant CHO or HEK (human embryonic kidney) cells expressing the respective human adenosine receptor subtype were obtained according to Borrman et al. or purchased from Perkin Elmer, Germany. Radioligand binding assays using human A1, A2A, A2B and A3 receptors were performed according to Alnouri et al..
[^3H]8-(4-[4-(4-chlorophenyl)piperazine-1-sulfonyl]phenyl)-1-propyl-2,3,6,7-tetrahydro-1H-purine-2,6-dione ([^3H]PSB-603, molar activity: 73Ci/mmol, 0.3 nM [26]) for the A2B receptor, and
(§3) [^3H](R)-8-ethyl-4-methyl-2-(phenyl)1,4,7,8-tetrahydro-5H-imidazo[2,1-i]purin-5-one ([^3H]PSB-11, molar activity: 53 Ci/mmol, 1 nM [30]) for the A3 receptor. Three separate experiments were performed to determine the Ki values. All data were analyzed with GraphPad Prism, Version 4.1 (GraphPad Inc., La Jolla, CA,USA).

[2] = molecular target: T2, human adenosine A2A receptor (Homo sapiens, UniProt P29274); test: Competitive radioligand binding with [3H]MSX-2, membranes of CHO or HEK cells; conditions: for Ki: [3H]MSX-2, mean ± SEM of three independent assays; for Selectivity Ratio Ki(Ax)/Ki(A2B): A2A/A2B: ratio of Ki values
T2 construct: host or cells: CHO or HEK cells
T2 sequence (P29274 whole entry): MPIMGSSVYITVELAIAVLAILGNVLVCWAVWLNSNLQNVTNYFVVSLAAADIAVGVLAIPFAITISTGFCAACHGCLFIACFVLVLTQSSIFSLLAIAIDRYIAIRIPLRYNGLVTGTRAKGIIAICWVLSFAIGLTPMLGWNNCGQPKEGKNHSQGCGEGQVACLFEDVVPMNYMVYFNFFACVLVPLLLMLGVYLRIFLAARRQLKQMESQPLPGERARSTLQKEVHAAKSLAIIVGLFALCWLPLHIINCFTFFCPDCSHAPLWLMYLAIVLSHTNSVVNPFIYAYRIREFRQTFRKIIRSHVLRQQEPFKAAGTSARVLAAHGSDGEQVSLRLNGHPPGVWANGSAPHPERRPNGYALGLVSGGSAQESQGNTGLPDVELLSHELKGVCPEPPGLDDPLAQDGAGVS
Description: as §1, §2
[^3H]3-(3-hydroxypropyl)-7-methyl-8-(m-methoxystyryl)-1-propargylxanthine, ([^3H]MSX-2, molar activity: 84 Ci/mmol, 1 nM [29]) for the A2A receptor,
as §3

[3] = molecular target: T3, human adenosine A1 receptor (Homo sapiens, UniProt P30542); test: Competitive radioligand binding with [3H]CCPA, membranes of CHO or HEK cells; conditions: for Ki: [3H]CCPA, mean ± SEM of three independent assays; for Selectivity Ratio Ki(Ax)/Ki(A2B): A1/A2B: ratio of Ki values
T3 construct: host or cells: CHO or HEK cells
T3 sequence (P30542 1-326): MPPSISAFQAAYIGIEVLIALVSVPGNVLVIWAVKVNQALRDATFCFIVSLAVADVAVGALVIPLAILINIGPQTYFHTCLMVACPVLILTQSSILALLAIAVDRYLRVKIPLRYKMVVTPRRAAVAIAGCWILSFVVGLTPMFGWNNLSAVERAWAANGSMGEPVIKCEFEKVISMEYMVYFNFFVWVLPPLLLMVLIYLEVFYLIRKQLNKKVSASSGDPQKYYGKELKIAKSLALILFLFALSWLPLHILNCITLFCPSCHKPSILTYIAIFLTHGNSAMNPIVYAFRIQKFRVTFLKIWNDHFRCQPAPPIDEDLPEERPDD
Description: as §1, §2
[^3H]2-Chloro-N^6cyclopentyladenosine ([^3H]CCPA, molar activity: 58 Ci/mmol, 1 nM [28]) for the A1 receptor,
as §3

[4] = molecular target: T4, human adenosine A3 receptor (Homo sapiens, UniProt P0DMS8); test: Competitive radioligand binding with [3H]PSB-11, membranes of CHO or HEK cells; conditions: for Ki: [3H]PSB-11, mean ± SEM of three independent assays; for Selectivity Ratio Ki(Ax)/Ki(A2B): A3/A2B: ratio of Ki values
T4 construct: host or cells: CHO or HEK cells
T4 sequence (P0DMS8 1-318): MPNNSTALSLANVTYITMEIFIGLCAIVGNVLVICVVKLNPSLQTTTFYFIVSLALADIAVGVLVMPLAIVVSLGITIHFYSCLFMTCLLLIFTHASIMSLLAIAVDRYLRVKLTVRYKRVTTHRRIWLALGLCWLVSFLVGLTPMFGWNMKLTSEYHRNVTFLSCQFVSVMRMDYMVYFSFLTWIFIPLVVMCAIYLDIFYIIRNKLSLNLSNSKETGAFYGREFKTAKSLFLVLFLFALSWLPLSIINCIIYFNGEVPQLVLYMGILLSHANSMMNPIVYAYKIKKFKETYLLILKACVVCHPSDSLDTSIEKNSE
Description: as §1, §2, §3

[5] = set-up: method as in PMID 20138516; conditions: in vitro, rat hepatic microsomes; cited from earlier work
[6] = set-up: method as in PMID 30104122; conditions: mice, 30 min p.i.; cited from earlier work
[7] = Shake-flask lipophilicity, n-octanol/phosphate-buffered saline; format: physicochemical; conditions: n-octanol/PBS, n = 4
Excerpt: The partition coefficient of [^18F]9 was experimentally determined for the n-octanol/PBS system by the shake-flask method as described previously.

[8] = In vivo metabolism in mice, plasma and urine analysed by RP-HPLC and MLC; set-up: species or system CD-1 mice; conditions: 30 min p.i.
Description: The metabolism of [^18F]9 in vivo was investigated in CD-1 mice by taking blood and urine samples at 30 min post i.v. injection of the radiotracer (n = 2). Analysis of the respective samples was performed by micellar (MLC) and reversed-phase chromatography (RP-HPLC) as two complementary HPLC methods. MLC is also a reversed-phase HPLC mode, but it uses a mobile phase consisting of an aqueous solution with a surfactant above its critical micellar concentration. The formed micelles are able to dissolve the proteins and other components of a biological sample and therefore enable a direct injection of the plasma probe into the HPLC system without eliminating the tissue matrix. In contrast, for RP-HPLC analysis, aliquots of the plasma samples were treated with a mixture of ACN/water to precipitate the proteins, resulting in recoveries of activity of about 93%.
For metabolism studies (n = 2), [^18F]9 (30–40 MBq) was administered as a bolus in awake female CD-1 mice (10–12 weeks, 25–32 g) via the tail vein. At 30 min p.i., the animals were slightly anesthetized with isoflurane, and blood was sampled from retro-orbital plexus. Blood plasma was obtained as a supernatant after centrifugation of the whole blood samples (14,000 rpm, 1 min; Centrifuge 5418, Eppendorf Vertrieb Deutschland GmbH, Wesseling-Berzdorf, Germany). After cervical luxation of the animals, urine samples were obtained. All samples were weighed and the respective activity measured in a dose calibrator (ISOMED 2010; MED Nuklear-Medizintechnik Dresden GmbH, Dresden, Germany).
MLC: For preparation of the MLC samples, mouse plasma (20–50 µL) was dissolved in 200 µL of 200 mM aq. sodium dodecyl sulfate (SDS) and injected into the MLC system. The MLC system was built up as described previously. Separations were performed using a Reprosil-Pur C18-AQ column (250 × 4.6 mm + 10 mm pre-column, particle size: 10 µm) and an eluent mixture of EtOH/100 mM aq. SDS/25 mM (NH4)2HPO4 in gradient mode (0–10 min at 100% 100 mM aq. SDS, 10–15 min up to 10% EtOH, 15–20 min at 10% EtOH, 20–21 min up to 100% 100 mM aq. SDS; 21–30 min at 100% 100 mM aq. SDS) at a flow rate of 1.0 mL/min. The same HPLC apparatus was used as described in the radiochemistry part in generals.
RP-HPLC: Protein precipitation was performed by addition of an ice-cold mixture of ACN/water (9/1; v/v) in a ratio of 4:1 (v/v) of organic solvent to plasma. The sample workup was performed according to a procedure previously described in detail. The urine samples were diluted with water and directly injected. To analyze the samples, the same HPLC apparatus and method was used as described in the radiochemistry section.

[9] = Dynamic small-animal PET biodistribution, baseline and blocking with compound 2; format: in vivo, female CD-1 mice; conditions: for SUV 60 min p.i. lung / TAC peak SUV lung: single animals, n = 2
Excerpt: We then performed a pilot study to estimate very basic characteristics of the pharmacokinetics of the new radiotracer via dynamic small-animal PET imaging with [^18F]9 in female CD-1 mice. The time–activity curves (TACs) obtained in different tissues under both baseline (administration of vehicle, n = 2) and blocking (administration of compound 2, n = 2) conditions are presented in Figure 3; the whole-body maximum intensity projections are shown in Figure S3 in the Supplementary Material. The overall biodistribution of [^18F]9 under baseline conditions corresponded to the known quite ubiquitous but physiologically not very dense expression of A2B receptors. Although higher levels of the A2B receptor protein have been reported in the literature for certain cell types, such as alveolar epithelial cells and endothelial cells, the resemblance of the TACs in peripheral organs such as lungs under baseline and blocking conditions indicated no target-specific retention of [^18F]9 (TAC peak SUV lung: 3.09 and 2.88 vs. 2.30 and 1.57, resp.; SUV60 min p.i., lung: 0.44 and 0.25 vs. 0.32 and 0.20, resp.). […] This discrepancy between our and Petroni’s results might indicate differences in the biological effects exerted by agonistic (BAY60-6583) or antagonistic (compound 2) A2B receptor ligands, as well as model-related differences such as the expression of A2B receptors. The latter option could also explain the about 10-fold lower uptake of [^18F]9 in the brown adipose tissue (BAT) of female CD-1 mice in comparison to the uptake of [^11C]-4 in the BAT of male Wistar rats.
The biodistribution of the radiotracer was assessed in female CD-1 mice (30.6 ± 0.4 g bodyweight) using a dedicated small-animal PET-MRI scanner (nanoScan, Mediso, Hungary) over 60 min followed by a subsequent T1-weighted MR. The anaesthetized (2% isoflurane, carrier gas mixture of 40% air and 60% O2) female CD-1 mice were kept on a heated animal bed to maintain body temperature during imaging. Vehicle (10% DMSO in isotonic 0.9% NaCl solution) or compound 2 at 1 mg/kg bodyweight were co-injected with the tracer ([^18F]9: injected dose of 6.9 ± 0.1 MBq, equivalent to 10.4 ± 0.9 fmol/g bodyweight) intravenously 20 seconds after starting the dynamic PET acquisition, performed in normal mode and with a coincidence mode 1–5. For subsequent dynamic reconstructions (Nucline v2.01, Mediso, Hungary) by Ordered Subset Expectation Maximization (OSEM3D) with an attenuation correction with four iterations, six subsets, and a voxel size of 0.4 mm^3, list mode data were sorted into sinograms (12 × 10 s, 6 × 30 s, 5 × 60 s, and 10 × 300 s). PMOD software (v4.005, PMOD Technologies LLC, Zurich, Switzerland) was used for analysis of reconstructed studies and the results are expressed as standardized uptake value (SUV) given in mean ± SD.

[10] = blocking (compound 2, 1 mg/kg co-injected)

Structure (SMILES): O=c1[nH]c(=O)c2cc(-c3ccncn3)c(-c3ccco3)nc2[nH]1 [Compound 2, 7-(Furan-2-yl)-6-(pyrimidin-4-yl)pyrido[2,3-d]pyrimidine-2,4-(1H,3H)-dione]
- Ki [1]: 2.51 ± 1.1 nM
- Ki [2]: 98.8 ± 28.3 nM
- Selectivity Ratio Ki(Ax)/Ki(A2B): A2A/A2B [2]: 39
- Ki [3]: > 1000 nM
- Selectivity Ratio Ki(Ax)/Ki(A2B): A1/A2B [3]: > 400
- Ki [4]: > 1000 nM
- Selectivity Ratio Ki(Ax)/Ki(A2B): A3/A2B [4]: > 400
- metabolic stability [5]: high metabolic stability

Structure (SMILES): O=c1[nH]c(=O)c2cc(-c3ccnc(F)c3)c(-c3ccco3)nc2[nH]1 [Compound 9, 6-(2-Fluoropyridin-4-yl)-7-(furan-2-yl)pyrido[2,3-d]pyrimidine-2,4(1H,3H)-dione]
- Ki [1]: 2.51 ± 0.58 nM
- Ki [2]: 107 ± 15 nM
- Selectivity Ratio Ki(Ax)/Ki(A2B): A2A/A2B [2]: 43
- Ki [3]: 149 ± 26 nM
- Selectivity Ratio Ki(Ax)/Ki(A2B): A1/A2B [3]: 59
- Ki [4]: 286 ± 10 nM
- Selectivity Ratio Ki(Ax)/Ki(A2B): A3/A2B [4]: 114

Structure (SMILES): O=C(Nc1cnc(-c2ccnc([18F])c2)c(-c2ccccc2F)n1)C1CC1 [[^18F]1]
- intact radiotracer in plasma [6]: 35%

Structure (SMILES): O=c1[nH]c(=O)c2cc(-c3ccnc([18F])c3)c(-c3ccco3)nc2[nH]1 [[^18F]9]
- logD [7]: 1.4 ± 0.1
- activity concentration in urine (SUV) ([8]; CD-1 mice): 75
- intact radiotracer, fraction of total activity in plasma ([8]; CD-1 mice, i.v., n = 2): about 60%
- intact tracer in plasma, RP-HPLC, calculated considering the 93% recovery ([8]; mouse plasma): 60%
- intact radiotracer in plasma, MLC ([8]; mouse plasma, exemplary MLC chromatogram): 57%
- intact radiotracer in plasma, RP-HPLC ([8]; mouse plasma, exemplary RP-HPLC chromatogram): 64%
- SUV 60 min p.i. lung ([9]; baseline (vehicle)): 0.44 and 0.25
- TAC peak SUV lung ([9]; baseline (vehicle)): 3.09 and 2.88
- SUV brain after 60 min p.i. ([9]; baseline, mean (single values)): 0.11 (0.14 and 0.08)
- initial TAC peak SUV brain ([9]; baseline, mean (single values)): 0.19 (0.20 and 0.17)
- SUV 60 min p.i. lung [9, 10]: 0.32 and 0.20
- TAC peak SUV lung [9, 10]: 2.30 and 1.57
- TAC peak SUV brain ([9]; co-administration of compound 2, mean (single values)): 0.12 (0.11 and 0.13)
- fold lower uptake in brown adipose tissue (BAT) versus [11C]-4 in BAT of male Wistar rats ([9]; female CD-1 mice, comparison with ref 13): about 10 fold
